Values of other authors as cited in patent US5952465A, “Polypeptides that include conformation-constraining groups which flank a protein-protein interaction site” (Virginia Commonwealth University, priority 1998, dated 1999).
Where a SMILES comes first, the peptide text is derived from it.

Test system: receptors of sweet tasting papillae
Conditions: comparison substance

Sweetness relative to sugar: 160 times sweeter than sugar
Structure (SMILES): COC(=O)[C@H](Cc1ccccc1)NC(=O)[C@@H](N)CC(=O)O [aspartame] (H-Asp-Phe-OMe)
